Source: US12258345B1, “Pyrrolo[3,2-c]isoquinoline-2,3-dione compounds as CK2 inhibitors” (KING FAISAL UNIVERSITY, priority 2023, dated 2025)

Experiments:
[1] = test system: various human cancer cell lines; assay: MTT in vitro cytotoxic activity assay, panel of human cancer cell lines; assay type: cell-based; settings: MCF7, MDA-MB-231, H1299, PC3, HCT116, A375, MIAPaCa-2, HL60
Description: (§1) Compounds 1-16 were screened for their in vitro cytotoxic behavior using a 3-(4,5-dimethyl-thiazol-2-yl)-2,5-diphenyltetrazolium bromide (MTT) assay against selected cancer human cell lines consisting of PC3 (prostate), HCT116 (colon), A375 (melanoma), H1299 (lung), MIAPaCa-2 (pancreas), HL60 (leukemia), MCF7 (breast), MDA-MB-231 (breast) (T. Mosmann, J. Immunol. Meth., 1983, 65, 55-63). The cells were cultured at 37° C. in RMPI1640 medium supplemented with 10% fetal bovine serum, 50 IU/mL penicillin, and 50 μg/mL streptomycin in a 5% CO2 incubator. All cells were sub-cultured 3 times/week by trypsinisation. Viable cells were seeded and allowed to adhere for 12 h before a test drug was added in 96-well plates at an initial density of 1.0×10^5 cells/mL. Tumor cell lines were separately exposed to various concentrations of the tested compounds followed by incubation at a temperature of 37° C. during 96 h inside a medium of fresh RMPI 1640. Cells were subsequently incubated at 37° C. using MTT at 0.5 mg/mL for 4 hours. After removal of supernatant, formazan crystals were dissolved in isopropanol and the optical density was measured at 570 nm. CX-4945 was used as a positive control.

[2] = target: T1, recombinant human CK2 (RRBB-holoenzyme) (Homo sapiens, UniProt P68400); assay: CK2 Kinase Assay (33P-ATP, substrate peptide RRRDDDSDDD); assay type: biochemical; settings: final ATP concentration 15 μM, 10 min at 30° C.; read-out: protein kinase CK2 activity IC50
T1 construct: purchased Millipore
T1 sequence (P68400 whole entry): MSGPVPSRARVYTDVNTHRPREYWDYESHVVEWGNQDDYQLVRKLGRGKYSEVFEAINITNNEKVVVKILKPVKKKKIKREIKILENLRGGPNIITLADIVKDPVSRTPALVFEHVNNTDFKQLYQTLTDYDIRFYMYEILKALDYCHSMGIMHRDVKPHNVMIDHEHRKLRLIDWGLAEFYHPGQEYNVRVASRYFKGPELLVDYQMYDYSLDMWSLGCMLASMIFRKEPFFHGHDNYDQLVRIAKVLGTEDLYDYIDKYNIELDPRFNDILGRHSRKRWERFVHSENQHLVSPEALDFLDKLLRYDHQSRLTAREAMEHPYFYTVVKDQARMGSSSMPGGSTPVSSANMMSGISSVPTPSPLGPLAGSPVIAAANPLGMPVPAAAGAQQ
T1 sequence (P67870 whole entry partner): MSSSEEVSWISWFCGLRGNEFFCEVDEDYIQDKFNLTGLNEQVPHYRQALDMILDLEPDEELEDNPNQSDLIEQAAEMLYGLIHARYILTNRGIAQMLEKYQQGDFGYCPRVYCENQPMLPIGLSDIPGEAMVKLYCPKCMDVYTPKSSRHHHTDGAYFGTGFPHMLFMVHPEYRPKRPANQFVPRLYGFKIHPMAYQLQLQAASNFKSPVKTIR
Description: CK2 Kinase Assay was conducted using the previously described protocol (Pierre F. et al; J. Med. Chem. 2011, 54, 635-654). The tested compounds in aqueous solution were added at a volume of 10 μL to a reaction mixture comprising 10 μL of assay dilution buffer (ADB; 20 mM MOPS, pH 7.2, 25 mM β-glycerol phosphate, 5 mM EGTA, 1 mM sodium orthovanadate, and 1 mM dithiothreitol), 10 μL of substrate peptide (RRRDDDSDDD, dissolved in ADB at a concentration of 1 mM), 10 μL of recombinant human CK2 (RRBB-holoenzyme, 25 ng dissolved in ADB; Millipore). Reactions were initiated by the addition of 10 μL of ATP solution (90% 75 mMMgCl2, 75 μM ATP (final ATP concentration: 15 μM) dissolved in ADB; 10% [γ-33P] ATP (stock 1 mCi/100 μL; 3000 Ci/mmol (Perkin-Elmer) and maintained for 10 min at 30° C. The reactions were quenched with 100 μL of 0.75% phosphoric acid and then transferred to and filtered through a phosphor cellulose filter plate (Millipore). After washing each well five times with 0.75% phosphoric acid, the plate was dried under vacuum for 5 min and, following the addition of 15 μL of scintillation fluid to each well, the residual radioactivity was measured using a Wallac […] counter. The IC50 values were derived from eight concentrations of test inhibitors.

HL60 (leukemia) = assay: MTT in vitro cytotoxic activity assay, HL60; assay type: cell-based; settings: Homo sapiens, HL-60, 96 h incubation, read-out: Cytotoxicity activity, HL60 (leukemia)
Description: as §1

PC3 (prostate) = assay: MTT in vitro cytotoxic activity assay, PC3; assay type: cell-based; settings: Homo sapiens, 96 h incubation, read-out: Cytotoxicity activity, PC3 (prostate)
Description: as §1

MCF7 (breast) = assay: MTT in vitro cytotoxic activity assay, MCF7; assay type: cell-based; settings: Homo sapiens, 96 h incubation, read-out: Cytotoxicity activity, MCF7 (breast)
Description: as §1

A375 (melanoma) = assay: MTT in vitro cytotoxic activity assay, A375; assay type: cell-based; settings: Homo sapiens, A-375, 96 h incubation, read-out: Cytotoxicity activity, A375 (melanoma)
Description: as §1

MIAPaCa-2 (pancreas) = assay: MTT in vitro cytotoxic activity assay, MIAPaCa-2; assay type: cell-based; settings: Homo sapiens, MIA PaCa-2, 96 h incubation, read-out: Cytotoxicity activity, MIAPaCa-2 (pancreas)
Description: as §1

MDA-MB-231 (breast) = assay: MTT in vitro cytotoxic activity assay, MDA-MB-231; assay type: cell-based; settings: Homo sapiens, 96 h incubation, read-out: Cytotoxicity activity, MDA-MB-231 (breast)
Description: as §1

HCT116 (colon) = assay: MTT in vitro cytotoxic activity assay, HCT116; assay type: cell-based; settings: Homo sapiens, HCT-116, 96 h incubation, read-out: Cytotoxicity activity, HCT116 (colon)
Description: as §1

H1299 (lung) = assay: MTT in vitro cytotoxic activity assay, H1299; assay type: cell-based; settings: Homo sapiens, NCI-H1299, 96 h incubation, read-out: Cytotoxicity activity, H1299 (lung)
Description: as §1

With O=C1Nc2c(nc(Nc3cccc(Cl)c3)c3cc(C(=O)O)ccc23)C1=O [Compound 1, 5-((3-chlorophenyl)amino)-2,3-dioxo-2,3-dihydro-1H-pyrrolo[3,2-c]isoquinoline-7-carboxylic acid] the “in vitro anti-proliferative / anticancer activity against human cancer cell lines (in words)” value [1] was “promising in vitro anti-proliferative activity”, the IC50 [2] was 0.038 µM and the IC50 (HL60 (leukemia)) was 3.9 µM. The IC50 (PC3 (prostate)) was 1.1 µM, the IC50 (MCF7 (breast)) was 5.4 µM and the IC50 (A375 (melanoma)) was 3.1 µM. For the same compound, the IC50 (MIAPaCa-2 (pancreas)) was 1.1 µM, the IC50 (MDA-MB-231 (breast)) was 3.8 µM and the IC50 (HCT116 (colon)) was 1.5 µM. For the same compound, the IC50 (H1299 (lung)) was 1.7 µM.
